# Source: ChEMBL document CHEMBL3739386, “Synthesis and biological evaluation of picolinamides and thiazole-2-carboxamides as mGluR5 (metabotropic glutamate receptor 5) antagonists” (Bioorg Med Chem Lett, 2016)
# Key:
# [1] = biological target: T1, Metabotropic glutamate receptor 5 (Homo sapiens, UniProt P41594); test: Antagonist activity at mGlu5 receptor (unknown origin) expressed in HEK cells assessed as inhibition of glutamate-induced calcium flux at 10 uM by fluorescence based assay; type: functional, cell-based; conditions: HEK293
# Target sequence in this assay (P41594 21-1212 limits assumed): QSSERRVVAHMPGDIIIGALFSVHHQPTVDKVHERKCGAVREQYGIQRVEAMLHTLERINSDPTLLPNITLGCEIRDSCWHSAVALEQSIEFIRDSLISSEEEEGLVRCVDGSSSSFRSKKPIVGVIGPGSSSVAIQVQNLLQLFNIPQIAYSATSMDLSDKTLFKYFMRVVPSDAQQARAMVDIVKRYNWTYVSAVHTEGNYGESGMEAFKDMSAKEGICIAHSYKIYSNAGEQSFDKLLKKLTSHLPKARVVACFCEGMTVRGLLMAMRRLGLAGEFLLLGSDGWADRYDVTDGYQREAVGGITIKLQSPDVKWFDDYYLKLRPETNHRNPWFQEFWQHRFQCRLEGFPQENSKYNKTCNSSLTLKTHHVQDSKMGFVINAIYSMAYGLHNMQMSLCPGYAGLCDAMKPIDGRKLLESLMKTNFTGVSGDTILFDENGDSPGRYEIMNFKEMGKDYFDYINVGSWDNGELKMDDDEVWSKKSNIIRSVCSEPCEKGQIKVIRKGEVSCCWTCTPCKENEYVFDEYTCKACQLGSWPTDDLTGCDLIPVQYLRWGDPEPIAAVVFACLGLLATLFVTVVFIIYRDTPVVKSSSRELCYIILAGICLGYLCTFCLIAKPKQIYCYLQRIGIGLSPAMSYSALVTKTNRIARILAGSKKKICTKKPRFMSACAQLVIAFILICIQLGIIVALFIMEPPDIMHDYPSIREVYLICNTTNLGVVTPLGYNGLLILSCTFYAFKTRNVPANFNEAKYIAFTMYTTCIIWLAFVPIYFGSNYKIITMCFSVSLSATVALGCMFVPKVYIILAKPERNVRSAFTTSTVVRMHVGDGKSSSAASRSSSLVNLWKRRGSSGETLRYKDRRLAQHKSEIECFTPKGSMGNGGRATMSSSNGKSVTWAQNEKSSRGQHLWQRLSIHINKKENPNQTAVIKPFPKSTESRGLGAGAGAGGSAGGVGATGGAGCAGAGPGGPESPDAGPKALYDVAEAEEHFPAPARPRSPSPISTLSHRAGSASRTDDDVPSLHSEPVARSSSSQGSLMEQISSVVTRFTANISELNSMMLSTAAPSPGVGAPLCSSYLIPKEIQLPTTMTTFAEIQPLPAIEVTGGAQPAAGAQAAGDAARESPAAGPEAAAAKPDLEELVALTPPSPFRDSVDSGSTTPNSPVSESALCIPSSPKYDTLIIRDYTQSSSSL
# [2] = biological target: T1, Metabotropic glutamate receptor 5; test: Antagonist activity at mGlu5 receptor (unknown origin) expressed in HEK cells assessed as inhibition of glutamate-induced calcium flux at 1 uM by fluorescence based assay; type: functional, cell-based; conditions: HEK293
# Target sequence in this assay (P41594 21-1212 limits assumed): as above
# [3] = biological target: T1, Metabotropic glutamate receptor 5; test: Antagonist activity at mGlu5 receptor (unknown origin) expressed in HEK cells assessed as inhibition of glutamate-induced calcium flux by fluorescence based assay; type: functional, cell-based, HEK293
# CYP1A2 = biological target: T2, CYP1A2 (Homo sapiens, UniProt P05177); test: Inhibition of human CYP1A2 assessed as remaining activity at 10 uM; type: ADME; conditions: read-out: Activity
# T2 sequence (P05177 whole entry): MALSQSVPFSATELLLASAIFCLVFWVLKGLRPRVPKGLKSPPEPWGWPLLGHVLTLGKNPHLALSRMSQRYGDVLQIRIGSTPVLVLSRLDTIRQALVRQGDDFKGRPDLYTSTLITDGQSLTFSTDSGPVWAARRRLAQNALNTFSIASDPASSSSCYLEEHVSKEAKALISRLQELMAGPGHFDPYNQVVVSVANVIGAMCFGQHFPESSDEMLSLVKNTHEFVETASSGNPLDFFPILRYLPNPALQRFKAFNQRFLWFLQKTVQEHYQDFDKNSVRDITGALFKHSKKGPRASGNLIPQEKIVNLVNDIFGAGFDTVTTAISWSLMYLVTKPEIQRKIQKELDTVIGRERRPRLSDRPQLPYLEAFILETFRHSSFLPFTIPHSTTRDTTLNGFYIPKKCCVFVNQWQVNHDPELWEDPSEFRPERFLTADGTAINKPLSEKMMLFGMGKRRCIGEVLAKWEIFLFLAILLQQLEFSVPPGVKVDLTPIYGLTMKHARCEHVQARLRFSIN
# hERG (KCNH2) [4] = biological target: T3, hERG (KCNH2) (Homo sapiens, UniProt Q12809); test: Inhibition of human ERG at 10 uM by patch-clamp method
# T3 sequence (Q12809 whole entry): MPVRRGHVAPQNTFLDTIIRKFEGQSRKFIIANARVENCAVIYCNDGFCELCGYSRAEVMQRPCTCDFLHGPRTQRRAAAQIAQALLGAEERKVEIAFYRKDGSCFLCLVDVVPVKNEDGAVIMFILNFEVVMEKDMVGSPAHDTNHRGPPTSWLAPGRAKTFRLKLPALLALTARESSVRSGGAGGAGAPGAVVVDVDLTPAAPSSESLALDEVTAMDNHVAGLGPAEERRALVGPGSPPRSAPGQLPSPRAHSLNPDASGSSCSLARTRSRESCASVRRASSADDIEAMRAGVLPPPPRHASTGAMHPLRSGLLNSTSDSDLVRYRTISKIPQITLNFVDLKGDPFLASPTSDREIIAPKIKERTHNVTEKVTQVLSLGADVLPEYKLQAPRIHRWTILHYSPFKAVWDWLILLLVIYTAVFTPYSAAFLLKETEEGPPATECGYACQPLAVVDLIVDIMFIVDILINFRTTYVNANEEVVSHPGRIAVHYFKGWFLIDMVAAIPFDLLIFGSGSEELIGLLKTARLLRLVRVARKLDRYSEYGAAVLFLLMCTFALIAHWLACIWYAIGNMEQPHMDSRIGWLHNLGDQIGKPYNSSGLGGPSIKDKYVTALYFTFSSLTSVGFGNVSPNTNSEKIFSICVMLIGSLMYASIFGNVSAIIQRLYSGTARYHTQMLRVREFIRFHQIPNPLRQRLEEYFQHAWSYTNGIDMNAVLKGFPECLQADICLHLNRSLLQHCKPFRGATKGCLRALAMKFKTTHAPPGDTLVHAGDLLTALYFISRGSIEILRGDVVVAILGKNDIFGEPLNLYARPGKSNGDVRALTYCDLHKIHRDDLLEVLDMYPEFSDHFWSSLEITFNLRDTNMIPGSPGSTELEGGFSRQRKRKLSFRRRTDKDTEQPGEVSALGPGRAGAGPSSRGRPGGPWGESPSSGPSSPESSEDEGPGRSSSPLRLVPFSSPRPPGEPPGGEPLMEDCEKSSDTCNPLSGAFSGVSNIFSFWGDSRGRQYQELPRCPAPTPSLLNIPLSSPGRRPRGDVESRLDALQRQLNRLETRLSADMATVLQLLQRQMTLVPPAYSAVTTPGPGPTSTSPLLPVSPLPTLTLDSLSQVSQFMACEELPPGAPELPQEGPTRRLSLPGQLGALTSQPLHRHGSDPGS
# hERG (KCNH2) [5] = biological target: T3, hERG (KCNH2); test: Inhibition of human ERG at 1 uM by patch-clamp method
# hERG (KCNH2) [6] = biological target: T3, hERG (KCNH2); test: Inhibition of human ERG at 0.1 uM by patch-clamp method
# [7] = Metabolic stability in human liver microsomes assessed as compound remaining at 1 uM after 30 mins; type: ADME; conditions: read-out: Stability
# CYP2D6 = CYP2D6 (Homo sapiens, UniProt P10635); test: Inhibition of human CYP2D6 assessed as remaining activity at 10 uM; type: ADME; conditions: read-out: Activity
# CYP2D6, sequence (P10635 whole entry): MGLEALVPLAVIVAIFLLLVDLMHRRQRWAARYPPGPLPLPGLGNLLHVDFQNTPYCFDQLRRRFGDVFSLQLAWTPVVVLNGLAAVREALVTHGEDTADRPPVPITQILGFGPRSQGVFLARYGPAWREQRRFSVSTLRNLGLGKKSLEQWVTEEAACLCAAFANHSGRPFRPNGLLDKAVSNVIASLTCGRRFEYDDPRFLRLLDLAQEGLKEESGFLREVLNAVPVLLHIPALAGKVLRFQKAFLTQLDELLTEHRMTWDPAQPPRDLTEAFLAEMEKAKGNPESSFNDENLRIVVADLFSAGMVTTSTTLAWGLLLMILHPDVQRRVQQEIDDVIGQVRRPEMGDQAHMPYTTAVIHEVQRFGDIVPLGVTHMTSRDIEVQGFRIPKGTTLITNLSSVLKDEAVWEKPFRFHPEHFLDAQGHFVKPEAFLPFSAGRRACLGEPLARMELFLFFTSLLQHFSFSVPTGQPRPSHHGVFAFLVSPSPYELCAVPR
# CYP2C9 = CYP2C9 (Homo sapiens, UniProt P11712); test: Inhibition of human CYP2C9 assessed as remaining activity at 10 uM; type: ADME; conditions: read-out: Activity
# CYP2C9, sequence (P11712 whole entry): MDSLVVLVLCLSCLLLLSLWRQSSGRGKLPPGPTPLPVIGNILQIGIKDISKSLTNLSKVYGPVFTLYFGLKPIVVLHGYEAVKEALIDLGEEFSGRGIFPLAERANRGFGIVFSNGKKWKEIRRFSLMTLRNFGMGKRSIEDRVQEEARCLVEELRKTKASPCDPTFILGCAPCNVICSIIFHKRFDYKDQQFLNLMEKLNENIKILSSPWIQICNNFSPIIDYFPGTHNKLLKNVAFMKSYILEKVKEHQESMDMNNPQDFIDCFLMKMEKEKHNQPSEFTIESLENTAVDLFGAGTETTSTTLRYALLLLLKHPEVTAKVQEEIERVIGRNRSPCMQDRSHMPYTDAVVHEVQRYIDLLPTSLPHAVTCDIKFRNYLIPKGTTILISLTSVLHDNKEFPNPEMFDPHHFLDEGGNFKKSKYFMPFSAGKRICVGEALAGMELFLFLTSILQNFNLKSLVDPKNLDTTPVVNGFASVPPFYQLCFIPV
# CYP3A4 = CYP3A4 (Homo sapiens, UniProt P08684); test: Inhibition of human CYP3A4 assessed as remaining activity at 10 uM; type: ADME; conditions: read-out: Activity
# CYP3A4, sequence (P08684 whole entry): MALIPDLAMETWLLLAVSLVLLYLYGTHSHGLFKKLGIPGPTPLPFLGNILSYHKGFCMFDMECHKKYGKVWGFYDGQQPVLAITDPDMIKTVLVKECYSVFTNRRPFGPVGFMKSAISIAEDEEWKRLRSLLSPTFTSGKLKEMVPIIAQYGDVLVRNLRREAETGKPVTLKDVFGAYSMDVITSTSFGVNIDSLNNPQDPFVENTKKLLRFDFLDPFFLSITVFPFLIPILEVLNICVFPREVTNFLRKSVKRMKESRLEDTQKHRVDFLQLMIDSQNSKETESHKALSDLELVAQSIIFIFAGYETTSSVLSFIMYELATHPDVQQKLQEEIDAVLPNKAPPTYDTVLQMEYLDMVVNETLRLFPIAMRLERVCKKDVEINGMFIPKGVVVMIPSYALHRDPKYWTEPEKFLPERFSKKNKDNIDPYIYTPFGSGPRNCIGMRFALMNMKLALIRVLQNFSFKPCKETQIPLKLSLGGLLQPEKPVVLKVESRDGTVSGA
# CYP2C19 = CYP2C19 (Homo sapiens, UniProt P33261); test: Inhibition of human CYP2C19 assessed as remaining activity at 10 uM; type: ADME; conditions: read-out: Activity
# CYP2C19, sequence (P33261 whole entry): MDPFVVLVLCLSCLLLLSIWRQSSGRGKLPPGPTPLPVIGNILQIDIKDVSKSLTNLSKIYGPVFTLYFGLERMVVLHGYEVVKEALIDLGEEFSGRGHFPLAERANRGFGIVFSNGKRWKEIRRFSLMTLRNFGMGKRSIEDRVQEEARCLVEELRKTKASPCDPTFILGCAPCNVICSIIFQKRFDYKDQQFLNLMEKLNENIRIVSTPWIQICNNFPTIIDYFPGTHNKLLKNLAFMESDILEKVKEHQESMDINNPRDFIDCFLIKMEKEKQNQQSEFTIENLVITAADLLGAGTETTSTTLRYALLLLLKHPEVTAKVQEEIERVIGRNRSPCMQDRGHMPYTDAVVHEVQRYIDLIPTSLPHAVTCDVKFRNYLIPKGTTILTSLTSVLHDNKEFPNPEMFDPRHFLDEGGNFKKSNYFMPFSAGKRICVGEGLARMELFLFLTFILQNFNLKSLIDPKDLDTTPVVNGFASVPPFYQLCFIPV
SMILES,inhibition [1] [%],inhibition [2] [%],further results
COc1cccc(C(=O)Nc2cccnc2)n1,23.1,22.8,
N#Cc1cccc(NC(=O)c2cccc(F)n2)c1,34,3.2,
O=C(Nc1cccnc1)c1ccccn1,30.3,25.6,
O=C(Nc1cccc(Cl)n1)c1nc(Br)cs1,,60,
Cc1cccc(NC(=O)c2nc(Br)cs2)n1,,81,"IC50 [3]: 159 nM; activity at 10 µM (CYP1A2): 11%; inhibition at 10 µM (hERG (KCNH2) [4]): 34.8%; inhibition at 1 µM (hERG (KCNH2) [5]): 19.4%; inhibition at 0.1 µM (hERG (KCNH2) [6]): 15%; remaining at 0.5 h, 1 µM [7]: 7.25%; activity at 10 µM (CYP2D6): 99.2%; activity at 10 µM (CYP2C9): 88.2%; activity at 10 µM (CYP3A4): 87.3%; activity at 10 µM (CYP2C19): 7.4%"
O=C(Nc1cccc(Br)n1)c1nc(Br)cs1,,19.8,
Cc1ccnc(Cl)c1NC(=O)c1cccc(Cl)n1,18.6,15.7,
Cc1csc(C(=O)Nc2cccc(C#N)c2)n1,,16.6,
O=C(Nc1ccccn1)c1ccccn1,65.5,34.5,
O=C(Nc1ccc(Cl)cn1)c1ccccn1,30.7,16.2,
O=C(Nc1cccc(Cl)c1)c1nc(Br)cs1,,58.1,
O=C(Nc1cccc(F)n1)c1nc(Br)cs1,,27.6,
Cc1cccc(NC(=O)c2nc(C)cs2)c1,,11.6,
O=C(Nc1cccc(Br)c1)c1nc(Br)cs1,,71.1,"IC50 [3]: 274 nM; activity at 10 µM (CYP1A2): 38.3%; inhibition at 10 µM (hERG (KCNH2) [4]): 39.6%; inhibition at 1 µM (hERG (KCNH2) [5]): 29.3%; inhibition at 0.1 µM (hERG (KCNH2) [6]): 16.3%; remaining at 0.5 h, 1 µM [7]: 37.3%; activity at 10 µM (CYP2D6): 102%; activity at 10 µM (CYP2C9): 99%; activity at 10 µM (CYP3A4): 84.9%; activity at 10 µM (CYP2C19): 86.3%"
Cc1csc(C(=O)Nc2cccc(F)c2)n1,,3.1,
Cc1ccnc(Cl)c1NC(=O)c1ccccn1,17.7,16.1,

# The next lines start with results.
inhibition [1] [%],inhibition [2] [%],SMILES,further results
33.4,19.1,O=C(Nc1cccnc1)c1cccc(Cl)n1,
,50.1,Cc1cccc(NC(=O)c2nc(C)cs2)n1,
,40.9,Cc1cccc(NC(=O)c2nc(Br)cs2)c1,
68.1,18.4,Cc1cccc(C(=O)Nc2cccc(C#N)c2)n1,
,32.2,Cc1csc(C(=O)Nc2cccc(Cl)c2)n1,
,8.3,N#Cc1cccc(NC(=O)c2nc(C#N)cs2)n1,
,-0.4,N#Cc1csc(C(=O)Nc2cccc(F)n2)n1,
35.4,3.85,O=C(Nc1ccc(Cl)nc1Cl)c1ccccn1,
,-7.3,N#Cc1csc(C(=O)Nc2cccc(Cl)c2)n1,
,9.6,N#Cc1cccc(NC(=O)c2nc(Br)cs2)n1,
51,13.8,O=C(Nc1cc(Cl)cnc1Cl)c1ccccn1,
,47.1,Cc1csc(C(=O)Nc2ccccn2)n1,
,-0.1,N#Cc1cccc(NC(=O)c2nc(Br)cs2)c1,
43.4,18.5,COc1ccc(NC(=O)c2cccc(Cl)n2)cn1,
,45,Cc1csc(C(=O)Nc2cccc(Cl)n2)n1,
,19.5,N#Cc1csc(C(=O)Nc2cccc(Br)c2)n1,
33.4,13.1,O=C(Nc1cccc(Cl)c1)c1cccc(F)n1,
,24.7,Cc1cccc(NC(=O)c2nc(C#N)cs2)n1,
,13.7,O=C(Nc1cccc(F)c1)c1nc(Br)cs1,
,-9.4,N#Cc1csc(C(=O)Nc2cccc(Cl)n2)n1,
52.1,10.5,Cc1cccc(C(=O)Nc2cccc(Cl)c2)n1,
,18,Cc1csc(C(=O)Nc2cccc(Br)c2)n1,
25.5,14,COc1ccc(NC(=O)c2ccccn2)cn1,
